Where two headings read alike, the source gives them in different places.
How the values were obtained:
[1] = test system: blood glucose level in non-diabetic rats; assay: Hypoglycemic activity in non-diabetic rats (screening test); assay type: in vivo, male Sprague Dawley rats; conditions: Rattus norvegicus, 100 mg/kg oral, fasted, glucose s.c.
Experimental: (§1) These new compounds of the present invention are very useful as anti-diabetic agents, which is supported from the following pharmacological studies. The animals used for the pharmacological studies were male Sprague Dawley rats exept otherwise noted. 1. Hypoglycemic activity in non-diabetic rats (screening test)
(§2) The rats were fasted for 16 - 18 hours prior to the experiment and those weighing 140 - 160g were used. Glucose solution (100 mg/0.5ml/150g body weight) was subcutaneously injected on the fasted rats. Each of the present compounds was suspended in 1% carboxymethyl cellulose (CMC), and about 0.5 ml of the suspension (corresponding to 100 mg/kg of the compound per body weight) was orally administered. Blood samples were taken from the tail vein of the rats at 2 and 5 hours after the administration, and the blood glucose level in each sample (0.1 ml) was determined by the micro method of Momose as described in SOGO-RINSHO 11, 120 (1962).
3,5-Dinitrophthalic acid is reduced with glucose to stable orange-red azo-compound via red hydroxyaminophthalic acid in basic media.
To 0.5ml of water was added 0.1ml of blood and shaken to hemolyze, and to which was added 1.7ml of 0.06N barium hydroxide solution. To the resulting dark-brown solution was added 1.7ml of zinc sulfate solution (1g/dl), and which was shaken thoroughly and allowed to stand for 2-3min followed by centrifugation.
One ml of 3,5-dinitrophthalic acid solution (1.5g of monopyridinium-3,5-dinitrophthalate in 500ml of water) and 1 ml of sodium carbonatesodium hyposulfite solution (125-25g/500ml) were added to 2ml of spernatant solution. The solution was heated at 100° C for 10 min. After cooling with running water for 3 min, water was added to make 20ml.
To 2ml of water were added 3,5-dinitrophthalic acid solution and an alkaline solution, and the solution was treated as mentioned above.
As the absorbance of reference at 450nm was adjusted to 0, the absorbance of sample corresponded to blood glucose level.

[2] = test system: blood glucose level in fasted and glucose-loaded rats; assay: Duration of the action of the compound 4 (fasted, glucose-loaded rats); assay type: in vivo, male Sprague Dawley rats; conditions: for Blood glucose before administration: 50 mg/kg oral group, before administration (baseline); for Blood glucose before administration / Blood glucose 2 hours / Blood glucose 4 hours / Blood glucose 6 hours: ± SE
Experimental: as §1, §2
In order to reconfirm the effectiveness of the compounds of the present invention, more detailed examinations were performed on the most representative compound (compound of the Example 4 abbreviated hereinafter as the compound 4). The compound 4 suspended in 1% CMC was orally administered in a dose of 50 mg/kg to the fasted and glucose-loaded rats according to the preceding screening test, and the blood glucose levels at 2, 4 and 6 hours after the administration were determined by the method of Momose.

[3] = test system: serum FFA level in non-diabetic rats; assay: Serum free fatty acids (FFA) level in non-diabetic rats at 90 minutes; assay type: in vivo, male Sprague Dawley rats; conditions: 100 mg/kg oral
Experimental: as §1
The rats were fasted for 16-18 hours, and those weighing 130-160g were used. The compound 4 suspended in 1% CMC was orally administered to the fasted rats, and at 90 minutes after administration blood was drawn from the […] vena cava under anesthesia with sodium pentobarbital. The blood glucose level was determined by the method of Momose, and the serum FFA level was determined by the method of Itaya and Ui as described in J. Lipid Res., 6, 16 (1965), respectively.

[4] = test system: blood glucose level in non-diabetic rats; assay: Blood glucose level in non-diabetic rats, oral administration for 10 days; assay type: in vivo, male Sprague Dawley rats
Experimental: as §1
The compound suspended in 1% CMC was orally administered once a day for 10 days to healthy rats weighing 140-160g. The rats were fasted for 16-18 hours prior to the last administration. Blood samples were taken at 90 minutes after the last administration, and the blood glucose and serum FFA levels were determined, respectively.

[5] = test system: blood glucose level in non-diabetic rats; assay: Synergistic effect on the insulin activity in non-diabetic rats; assay type: in vivo, male Sprague Dawley rats; conditions: insulin 0.1 unit/kg s.c.; compound 4 25 mg/kg oral
Experimental: (§3) The animals used for the pharmacological studies were male Sprague Dawley rats exept otherwise noted. 1. Hypoglycemic activity in non-diabetic rats (screening test)
The blood glucose levels in the non-diabetic rats were respectively determined after a subcutaneous injection of insulin (0.1 unit/kg), after an oral administration of the compound 4 (25 mg/kg), and after simultaneous administrations of insulin and the compund 4.

[6] = test system: elevated blood glucose levels in adrenalectomized rats induced by adrenalin; assay: Adrenalin-induced hyperglycemia in adrenalectomized rats; assay type: in vivo, male Sprague Dawley rats; conditions: 4 mg/kg; adrenalin (50 mg/kg) subcutaneous
[7] = test system: elevated blood glucose levels in adrenalectomized rats induced by hydrocortisone acetate; assay: Hydrocortisone acetate-induced hyperglycemia in adrenalectomized rats; assay type: in vivo, male Sprague Dawley rats; conditions: 4 mg/kg; hydrocortisone acetate intravenous
[8] = test system: serum FFA level in alloxan diabetic rats; assay: Serum FFA level in alloxan diabetic rats, 10 consecutive days; assay type: in vivo, male Sprague Dawley rats
Experimental: as §1
(§4) Alloxan diabetic rats were obtained as follows. Namely, 2.5% fresh solution of alloxan (50mg/kg) was injected into the tail vein of male rats, and the rats were daily injected with insulin (1-4 units/day) from the 7th day after the administration of alloxan. The alloxan diabetic rats which were survived for more than 2 months with daily injection of insulin were used. The alloxan diabetic rats were fasted for 24 hours after the last treatment with insulin, and then the compound of the present invention was orally administered. The blood glucose levels were determined by the micro method of Momose before and 2, 4 and 6 hours after the administration.
(§5) The alloxan diabetic rats which were prepared and then preserved for 6 months with insulin as described in the previous experiment were used.

[9] = test system: serum cholesterol level in alloxan diabetic rats; assay: Serum cholesterol level in alloxan diabetic rats, 10 consecutive days; assay type: in vivo, male Sprague Dawley rats
Experimental: as §1, §4, §5

[10] = test system: serum triglyceride level in alloxan diabetic rats; assay: Serum triglyceride level in alloxan diabetic rats, 10 consecutive days; assay type: in vivo, male Sprague Dawley rats
Experimental: as §3, §4, §5

[11] = test system: serum FFA level in alloxan diabetic rats; assay: Serum FFA level in alloxan diabetic rats loaded with much quantity of glucose; assay type: in vivo, male Sprague Dawley rats; conditions: compound 4 12.5 and 100 mg/kg, phenformin 100mg/kg; oral with 2g/kg of glucose; 3 hours
Experimental: as §1
Respective dose of the compound 4 (12.5 and 100 mg/kg) together with 2g/kg of glucose was orally administered to the alloxan diabetic rats.

Acute toxicity in mice = assay type: in vivo
From the text: (§6) Thus, the toxicity of the present compound was considered to be extremely low.

Acute toxicity in rats = assay type: in vivo
From the text: as §6

[12] = 2 hours, read-out: Reduction % of blood glucose from control after 2 hours
[13] = 5 hours, read-out: Reduction % of blood glucose from control after 5 hours
[14] = 100 mg/kg, 10 consecutive days, control = 100
[15] = maximum dose technically possible

Question: For `CCCCNC(=O)NS(=O)(=O)c1ccc(C)cc1` [Tolbutamide, reference compound], which inhibition in vivo at 100 mg/kg [1, 12] is on record?
Answer: 54.1%

Question: What about the inhibition in vivo at 100 mg/kg [1, 13] of the same molecule?
Answer: 52.4%

Question: And the “Blood glucose before administration” value [2]?
Answer: 86.2 ± 2.1 mg%

Question: What about the “Blood glucose 2 hours” value ([2]; 50 mg/kg oral) of the same molecule?
Answer: 44.7 ± 5.0 mg%

Question: And the “Blood glucose 4 hours” value ([2]; 50 mg/kg oral)?
Answer: 60.4 ± 5.4 mg%

Question: And the “Blood glucose 6 hours” value ([2]; 50 mg/kg oral)?
Answer: 80.7 ± 5.4 mg%

Question: What about the “Serum FFA level” value [3] of the same molecule?
Answer: 30.8 ± 15.6 μ Eq/dl

Question: And the Blood glucose levels ([4]; 50.0 mg/kg oral once a day)?
Answer: 33.6 ± 6.3 mg/dL

Question: And the “Effect of combined use with insulin on blood glucose level” value [5]?
Answer: not more effective than the administration of tolbutamide alone

Question: With `Cc1cc(C)n(C(=O)CNS(=O)(=O)c2ccc(Cl)cc2)n1` [Example 4, 1-(N-p-chlorobenzenesulfonyl-glycyl)-3,5-dimethylpyrazole] as the molecule, how does the inhibition in vivo at 100 mg/kg [1, 12] read?
Answer: 41.9%

Question: And the inhibition in vivo at 100 mg/kg [1, 13]?
Answer: 25.2%

Question: And the “Blood glucose before administration” value [2]?
Answer: 85.6 ± 3.2 mg%

Question: What about the “Durability of hypoglycemic effect” value ([2]; 50 mg/kg oral, 2, 4 and 6 hours) of the same molecule?
Answer: more durable than that of tolbutamide

Question: What about the “Blood glucose 2 hours” value ([2]; 50 mg/kg oral) of the same molecule?
Answer: 50.9 ± 1.2 mg%

Question: And the “Blood glucose 4 hours” value ([2]; 50 mg/kg oral)?
Answer: 63.1 ± 3.0 mg%

Question: And the “Blood glucose 6 hours” value ([2]; 50 mg/kg oral)?
Answer: 74.0 ± 1.6 mg%

Question: And the “Hypoglycemic activity against hyperglycemia induced by adrenalin” value [6]?
Answer: particularly effective against the hyperglycemia induced by adrenalin

Question: What about the “Hypoglycemic activity on elevated blood glucose induced by hydrocortisone acetate” value [7] of the same molecule?
Answer: exerted its hypoglycemic activity on elevated blood glucose levels in adrenalectomized rats

Question: What about the “Effect on serum FFA level (in words)” value [3] of the same molecule?
Answer: more effective than tolbutamide in lowering the serum FFA level

Question: What about the “Serum FFA level” value [3] of the same molecule?
Answer: 17.4 ± 5.8 μ Eq/dl

Question: What about the Blood glucose levels ([4]; 0.8 mg/kg oral once a day) of the same molecule?
Answer: 81.6 ± 4.8 mg/dL

Question: And the Blood glucose levels ([4]; 3.1 mg/kg oral once a day)?
Answer: 74.4 ± 6.6 mg/dL

Question: And the Blood glucose levels ([4]; 12.5 mg/kg oral once a day)?
Answer: 74.8 ± 3.9 mg/dL

Question: What about the Blood glucose levels ([4]; 50.0 mg/kg oral once a day) of the same molecule?
Answer: 69.9 ± 6.7 mg/dL

Question: And the FFA ([8]; 100 mg/kg, 10 consecutive days)?
Answer: 28.5 ± 7.6 μ Eq/dl serum

Question: What about the “FFA, relative to control (100)” value [8, 14] of the same molecule?
Answer: 44.0

Question: And the “Effect on serum FFA level, 10 days (in words)” value ([8]; oral, 10 days)?
Answer: significantly reduced

Question: What about the Cholesterol ([9]; 100 mg/kg, 10 consecutive days) of the same molecule?
Answer: 46.1 ± 2.9 mg/dl serum

Question: What about the “Cholesterol, relative to control (100)” value [9, 14] of the same molecule?
Answer: 77.6

Question: What about the “Effect on serum cholesterol level, 10 days (in words)” value ([9]; oral, 10 days) of the same molecule?
Answer: significantly reduced

Question: What about the Triglyceride ([10]; 100 mg/kg, 10 consecutive days) of the same molecule?
Answer: 22.1 ± 4.6 mg/dl serum

Question: What about the “Triglyceride, relative to control (100)” value [10, 14] of the same molecule?
Answer: 40.1

Question: What about the “Effect on serum triglyceride level, 10 days (in words)” value ([10]; oral, 10 days) of the same molecule?
Answer: significantly reduced

Question: And the “Effect on serum FFA level (in words)” value [11]?
Answer: significantly lowered at 3 hours after the administration (p<0.005)

Question: What about the “Effect of combined use with insulin on blood glucose level” value [5] of the same molecule?
Answer: more effective to reduce the blood glucose level than the individual administration

Question: What about the “Maximum oral dose without death” value (Acute toxicity in mice; [15]) of the same molecule?
Answer: about 17 g/kg

Question: And the Mortality (Acute toxicity in mice; oral, up to about 17g/kg)?
Answer: no mice or rats suffered death

Question: What about the “Maximum oral dose without death” value (Acute toxicity in rats; [15]) of the same molecule?
Answer: about 17 g/kg

Question: What about the Mortality (Acute toxicity in rats; oral, up to about 17g/kg) of the same molecule?
Answer: no mice or rats suffered death
